# According to US7339080B2, “Method for the production of diaminoxylene by continuous hydrogenation of liquid phthalonitrile” (BASF Aktiengesellschaft, priority 2003, dated 2008):
# Experiment: solubility of IPN in process solvents (MXDA, liquid ammonia)
# Assay type: physicochemical
smiles,measurement,setting,value
"N#Cc1cccc(C#N)c1 [IPN, 1,3-dicyanobenzene]",solubility of IPN in MXDA,in MXDA at 70° C.,approx. 20 % by weight
same,solubility of IPN in NH3,in liquid ammonia (NH3) at 40° C.,approx. 45 % by weight
